The source of these data is patent publication US8835472B2, “Compounds, pharmaceutical compositions and uses thereof” (Boehringer Ingelheim International GmbH, priority 2010, dated 2014).

Sequence of human ACC2 (O00763 129-2458): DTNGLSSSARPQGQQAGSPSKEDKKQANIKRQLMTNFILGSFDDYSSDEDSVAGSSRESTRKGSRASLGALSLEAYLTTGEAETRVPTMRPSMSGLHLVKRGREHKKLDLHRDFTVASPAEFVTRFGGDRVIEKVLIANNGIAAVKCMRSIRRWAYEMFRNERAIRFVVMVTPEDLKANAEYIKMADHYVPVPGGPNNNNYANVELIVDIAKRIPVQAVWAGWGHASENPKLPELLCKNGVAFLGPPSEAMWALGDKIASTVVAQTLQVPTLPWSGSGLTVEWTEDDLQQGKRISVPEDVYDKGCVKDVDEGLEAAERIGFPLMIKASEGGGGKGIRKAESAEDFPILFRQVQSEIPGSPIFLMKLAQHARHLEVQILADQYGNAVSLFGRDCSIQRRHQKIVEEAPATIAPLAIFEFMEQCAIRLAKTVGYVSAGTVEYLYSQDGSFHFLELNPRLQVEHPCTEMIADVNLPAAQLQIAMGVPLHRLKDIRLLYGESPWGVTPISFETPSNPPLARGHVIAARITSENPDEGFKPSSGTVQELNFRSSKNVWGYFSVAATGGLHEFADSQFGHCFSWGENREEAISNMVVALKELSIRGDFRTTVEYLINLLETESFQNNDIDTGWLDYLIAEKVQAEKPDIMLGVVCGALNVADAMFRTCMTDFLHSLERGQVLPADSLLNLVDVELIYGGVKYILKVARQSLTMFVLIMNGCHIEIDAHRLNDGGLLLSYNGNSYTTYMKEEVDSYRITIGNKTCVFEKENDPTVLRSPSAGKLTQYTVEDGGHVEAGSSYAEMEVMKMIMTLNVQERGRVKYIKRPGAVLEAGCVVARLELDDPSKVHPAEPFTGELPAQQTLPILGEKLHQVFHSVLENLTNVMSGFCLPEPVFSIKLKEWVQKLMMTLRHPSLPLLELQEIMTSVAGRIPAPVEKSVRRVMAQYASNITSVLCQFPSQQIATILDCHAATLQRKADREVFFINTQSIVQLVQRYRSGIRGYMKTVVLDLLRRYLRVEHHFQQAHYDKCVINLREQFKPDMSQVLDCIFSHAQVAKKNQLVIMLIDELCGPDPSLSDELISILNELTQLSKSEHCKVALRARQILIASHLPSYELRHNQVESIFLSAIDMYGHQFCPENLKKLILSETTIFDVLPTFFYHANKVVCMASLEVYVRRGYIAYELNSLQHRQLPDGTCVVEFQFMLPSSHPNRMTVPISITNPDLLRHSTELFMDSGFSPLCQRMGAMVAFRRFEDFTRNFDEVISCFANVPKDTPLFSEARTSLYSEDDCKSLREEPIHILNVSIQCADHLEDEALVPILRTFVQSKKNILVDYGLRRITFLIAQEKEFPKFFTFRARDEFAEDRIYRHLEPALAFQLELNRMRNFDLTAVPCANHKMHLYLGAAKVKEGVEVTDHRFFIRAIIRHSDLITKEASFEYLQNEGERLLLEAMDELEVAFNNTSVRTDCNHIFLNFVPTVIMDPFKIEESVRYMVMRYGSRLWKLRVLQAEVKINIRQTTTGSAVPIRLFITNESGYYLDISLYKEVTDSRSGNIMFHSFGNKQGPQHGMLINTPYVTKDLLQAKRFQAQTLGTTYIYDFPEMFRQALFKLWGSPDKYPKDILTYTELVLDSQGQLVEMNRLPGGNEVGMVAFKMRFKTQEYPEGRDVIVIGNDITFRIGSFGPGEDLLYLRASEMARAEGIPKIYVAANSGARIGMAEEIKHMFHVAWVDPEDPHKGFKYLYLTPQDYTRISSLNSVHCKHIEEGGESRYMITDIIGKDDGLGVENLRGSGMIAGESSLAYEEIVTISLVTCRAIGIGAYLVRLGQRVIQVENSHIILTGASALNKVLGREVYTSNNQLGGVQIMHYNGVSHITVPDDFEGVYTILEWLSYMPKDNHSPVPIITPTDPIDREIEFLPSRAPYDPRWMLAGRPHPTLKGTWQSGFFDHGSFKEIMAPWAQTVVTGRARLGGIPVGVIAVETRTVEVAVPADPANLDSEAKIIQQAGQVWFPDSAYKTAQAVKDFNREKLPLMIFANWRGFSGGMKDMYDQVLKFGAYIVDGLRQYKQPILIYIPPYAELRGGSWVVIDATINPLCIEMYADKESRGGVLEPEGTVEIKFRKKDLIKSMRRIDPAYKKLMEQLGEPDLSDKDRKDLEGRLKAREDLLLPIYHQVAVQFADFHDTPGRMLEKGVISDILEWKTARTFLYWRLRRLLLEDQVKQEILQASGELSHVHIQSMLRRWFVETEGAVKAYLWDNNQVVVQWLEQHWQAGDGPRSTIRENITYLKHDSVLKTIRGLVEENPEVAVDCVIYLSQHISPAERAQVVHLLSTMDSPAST

This assay has as its target human ACC2 (Homo sapiens (Human), UniProt O00763). Put plainly: ACC2 assay, spectrophotometric 384 well assay (NADH-linked, coupled lactate dehydrogenase/pyruvate kinase reaction). It is filed as biochemical. As to conditions: hACC2 construct lacking the 128 N-terminal amino acids; 25° C., 340 nm over 15 minutes. The gist of the method:
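Kinetic NADH-linked assay (pyruvate kinase/lactate dehydrogenase coupling) with baculovirus-expressed hACC2 missing its first 128 amino acids. Started with 500 μM ATP and 200 μM each NADH and acetyl-CoA; slope followed 15 min at 25 °C, pH 7.5. No-acetyl-CoA wells define 0%; IC50 by nonlinear regression.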
In the case of `CCOc1ccc(C#Cc2ccc(CCC(C)NC(C)=O)cc2)cc1` (centres unmarked) [Example 14.10], half-maximal inhibition (IC50) was put at 100 nM.

Molecule `CCCOc1ccc(C#Cc2ccc(CCC(C)NC(C)=O)cc2)cc1` (centres unmarked) [Example 14.11] registered an IC50 of 130 nM. This IC50 and that of the molecule before are within 1.5-fold of each other.

Consider `CC(=O)NC(C)CCc1ccc(C#Cc2ccc(OCC3CC3)cc2)cc1` (centres unmarked) [Example 14.12], for which it took 170 nM to reach half-maximal inhibition (IC50). This IC50 and that of the molecule before are within 1.5-fold of each other.

Regarding `CC(=O)NC(C)CCc1ccc(C#Cc2ccc(OCC(C)C)cc2)cc1` (centres unmarked) [Example 14.13], it took 220 nM to reach half-maximal inhibition (IC50).

`CC(=O)NC(C)CCc1ccc(C#Cc2ccc(OC3CCCC3)cc2)cc1` (centres unmarked) [Example 14.14] gave an IC50 of 160 nM. This IC50 and that of the molecule before are within 1.5-fold of each other.

Molecule `CCC(C)Oc1ccc(C#Cc2ccc(CCC(C)NC(C)=O)cc2)cc1` (centres unmarked) [Example 14.15] gave a 50% inhibitory concentration (IC50) of 140 nM. The IC50 values of the last two molecules are within 1.5-fold of each other.

Regarding `CCCOc1cc(C#Cc2ccc(CCC(C)NC(C)=O)cc2)ccn1` (centres unmarked) [Example 14.16], the IC50 worked out at 120 nM.

`CC(C)COc1ccc(C#Cc2ccc(CC(C)NC(=O)C3CC3)cc2)cc1` (centres unmarked) [Example 14.17] displayed a half-inhibitory concentration (IC50) of 510 nM. This IC50 is about 4.2-fold higher than that of the molecule before.

In turn, `CC(Cc1ccc(C#Cc2ccc(OCC3CC3)cc2)cc1)NC(=O)C1CC1` (centres unmarked) [Example 14.18] yielded an IC50 of 140 nM.

For `CCOc1ccc(C#Cc2ccc([C@H](C)NC(C)=O)cc2)cc1` [Example 14.19], the half-maximal inhibitory concentration (IC50) turned out to be 190 nM.

On to `CC(=O)N[C@@H](C)c1ccc(C#Cc2ccc(OC(C)C)cc2)cc1` [Example 14.20], for which the IC50 came out at 510 nM.

For the molecule `CC(=O)NC(C)Cc1ccc(C#Cc2ccc(OCCC(C)C)nn2)cc1` (centres unmarked) [Example 14.21], the IC50 turned out to be 3100 nM.

On to `CCCOc1cc(C#Cc2ccc([C@@H](C)NC(C)=O)cc2)ccn1` [Example 14.22], for which it took 13400 nM to reach half-maximal inhibition (IC50).

Regarding `CCCOc1ccc(C#Cc2ccc([C@H](C)NC(C)=O)cc2)cc1` [Example 14.23], half-maximal inhibition (IC50) required 140 nM.

Molecule `CCCOc1cc(C#Cc2ccc([C@H](C)NC(C)=O)cc2)ccn1` [Example 14.24] registered a concentration for half-maximal inhibition (IC50) of 200 nM.

For the molecule `CCOc1ccc(C#Cc2ccc([C@H](C)NC(C)=O)cc2)cn1` [Example 14.25], the midpoint of inhibition, the IC50, lay at 1800 nM.

For `CC(=O)N[C@@H](C)c1ccc(C#Cc2ccc(OCC(C)C)cc2)cc1` [Example 14.26], half-maximal inhibition (IC50) was put at 140 nM.

`CC(Cc1ccc(C#Cc2ccc(Oc3cncnc3)nc2)cc1)NC(=O)C1CC1` (centres unmarked) [Example 14.27] showed an IC50 of 3700 nM.

`CC(C)Oc1ccc(C#Cc2ccc([C@H](C)NC(=O)C3CC3)cc2)cc1` [Example 14.28] came in with an IC50 of 3400 nM.

As to `CC(Cc1ccc(C#Cc2ccc(OC3CCC3)cc2)cc1)NC(=O)C1CC1` (centres unmarked) [Example 14.29], the IC50 stood at 680 nM.

With `CC(Cc1ccc(C#Cc2ccc(OC3CC3)cc2)cc1)NC(=O)C1CC1` (centres unmarked) [Example 14.30], the midpoint of inhibition, the IC50, lay at 150 nM. Against the preceding molecule, the IC50 is about 4.5-fold lower.

Regarding `CCCCOc1ccc(C#Cc2ccc(CC(C)NC(=O)C3CC3)cc2)cc1` (centres unmarked) [Example 14.31], the half-maximal inhibitory concentration (IC50) was determined as 90 nM. This IC50 is about 1.7-fold lower than that of the molecule before.

In turn, `CC(Cc1ccc(C#Cc2cccc(OC(C)C)c2)cc1)NC(=O)C1CC1` (centres unmarked) [Example 14.32] came in with a 50% inhibitory concentration (IC50) of 710 nM.

With `CCC(CC)Oc1ccc(C#Cc2ccc(CC(C)NC(=O)C3CC3)cc2)cc1` (centres unmarked) [Example 14.33], the half-maximal inhibitory concentration (IC50) came out at 1600 nM. Against the preceding molecule, the IC50 is about 2.3-fold higher.

On to `CC(=O)NCCc1ccc(C#Cc2ccc(OCC(C)C)cc2)cc1` [Example 14.34], for which the half-inhibitory concentration (IC50) turned out to be 600 nM.

`CC(=O)NCCc1ccc(C#Cc2ccc(OC(C)C)cc2)cc1` [Example 14.35] displayed an IC50 of 730 nM.

As to `CCOc1ccc(C#Cc2ccc(CCNC(C)=O)cc2)cn1` [Example 14.36], the IC50 worked out at 2300 nM.

Take `CCCOc1ccc(C#Cc2ccc(CCNC(C)=O)cc2)cc1` [Example 14.37]: the IC50 amounted to 170 nM.

Molecule `CC(=O)NCCc1ccc(C#Cc2ccc(Oc3ccccc3)nc2)cc1` [Example 14.38] showed an IC50 of 1400 nM.

With `CCCOc1cc(C#Cc2ccc(CCNC(C)=O)cc2)ccn1` [Example 14.39], the IC50 was 1100 nM.

`CCCOc1ccc(C#Cc2ccc(CC(C)NC(=O)C3CC3)cc2)cc1` (centres unmarked) [Example 14.40] yielded an IC50 of 80 nM. Against the preceding molecule, the IC50 is about 14-fold lower.

Molecule `CC(Cc1ccc(C#Cc2ccc(OC(C)C)cc2)cc1)NC(=O)C1CC1` (centres unmarked) [Example 14.41] showed a 50% inhibitory concentration (IC50) of 440 nM.

The term IC50 denotes the point on the concentration scale where inhibition reaches its midpoint. A low value points to greater potency in that assay.
